Among the data in ChEMBL document CHEMBL1148200, “Kulokekahilide-2, a cytotoxic depsipeptide from a cephalaspidean mollusk Philinopsis speciosa” (J Nat Prod, 2004) are IC50 values, retold here.

One assay relates to A10. As to the kind of experiment: Cytotoxicity against rat A10 cells. Type of assay: cell-based.
The test system of the next assay is P388. In words: Cytotoxicity against mouse P388 cells. Type of assay: functional, cell-based.
Another assay deals with SK-OV-3. As to the kind of experiment: Cytotoxicity against human SKOV3 cells. The format is functional, cell-based.
The next assay deals with MDA-MB-435. In words: Cytotoxicity against human MDA-MB-435 cells. Type of assay: functional, cell-based.

Molecules are shown by their SMILES.

Consider `C/C=C(\C)[C@H]1OC(=O)[C@H](C)NC(=O)[C@H]([C@@H](C)CC)NC(=O)CN(C)C(=O)[C@H](Cc2ccccc2)N(C)C(=O)[C@@H](C)NC(=O)[C@@H](CC(C)C)OC(=O)/C(C)=C/C[C@H](O)[C@@H]1C`, for which the 50% inhibitory concentration (IC50) worked out at 0.0591 µM in the assay on A10, 0.0042 µM in the assay on P388, 0.0075 µM with SK-OV-3 and 0.0146 µM in the assay on MDA-MB-435.

By IC50 is commonly meant the point on the concentration scale where inhibition reaches its midpoint.
